Structures are written as SMILES.

Drawing on patent US8309685B2 (Celgene Avilomics Research, Inc., priority 2007, dated 2012), this text covers IC50 and IC90 for 11 molecules.

The target in experiment [1] is T1, D168A mutant of the HCV NS3/4A 1b protease enzyme (Hepatitis C virus genotype 1b, UniProt P26663, D1194A).
T1 construct: 10× stocks of NS3/4A protease enzyme from Bioenza (Mountain View, Calif.); purchased Bioenza (Mountain View, Calif.)
In words: HCV Protease FRET Assay (IC50_APP), D168A mutant. The class given is biochemical. Particulars: apparent IC50, D168A mutant; read-out: IC50_APP, HCV D168A. The method, then: (§1) HCV Protease FRET Assay for WT and Mutated NS3/4A 1b Enzymes (IC50—APP).
(§2) The following protocol was used to generate “apparent” IC50 (IC50—APP) values as depicted in Table 6, below. […] 5 μL of each enzyme were added to Corning (#3575) 384-well, black, microtiter plates (Corning, N.Y.) after spotting a 0.5 μL volume of 50% DMSO and serially diluted compounds prepared in 50% DMSO. Protease reactions were immediately started after enzyme addition with the addition of 45 μL of the FRET substrate and monitored for 60-90 minutes at λex485/λem520 in a Synergy^4 plate reader from BioTek (Winooski, Vt.). At the conclusion of each assay, progress curves from each well were examined for linear reaction kinetics and fit statistics (R^2, 95% confidence intervals, absolute sum of squares).
(§3) The compound numbers correspond to the compound numbers in Table 3. […] ;

Experiment [2] has as its target T2, wild type HCV NS3/4A 1b protease enzyme (Hepatitis C virus genotype 1b, UniProt P26663).
T2 construct: 10× stocks of NS3/4A protease enzyme from Bioenza (Mountain View, Calif.); purchased Bioenza (Mountain View, Calif.)
In words: HCV Protease FRET Assay (IC50_APP), wild type. The class given is biochemical. Particulars: read-out: IC50_APP, WT; apparent IC50, wild type NS3/4A 1b. As for the experimental part: as §1, §2, §3

In experiment [3] the test system is HCV RNA replicon in cell line ET (luc-ubi-neo/ET), human Huh7 hepatoma. In words: Method A: HCV RNA replicon antiviral assay (luciferase, ET cell line). Particulars: Hepatitis C virus, Huh-7, assay described in Example 22; for IC50: read-out: Replicon (IC50). The format is cell-based, Hepatitis C virus. The method, then:
The compounds were assayed to evaluate the antiviral activity and cytotoxicity of compounds in vitro using HCV RNA replicons. This assay used the cell line ET (luc-ubi-neo/ET), which is a human Huh7 hepatoma cell line that contains an HCV RNA replicon with a stable luciferase (Luc) reporter and three cell culture-adaptive mutations. […]
The ET cell line was grown in Dulbecco's modified essential media (DMEM), 10% fetal bovine serum (FBS), 1% penicillin-streptomycin (pen-strep), 1% glutamine, 250 μg/ml G418 in a 5% CO2 incubator at 37° C. All cell culture reagents were obtained from Mediatech (Manassas, Va.). Cells were trypsinized (1% trypsin:EDTA) and plated out at 5×10^3 cells/well in white 96-well assay plates (Costar) dedicated to cell number (cytotoxicity) or antiviral activity assessments. Drugs were added at six 3-fold concentrations each and the assay was run in DMEM, 5% FBS, 1% pen-strep, 1% glutamine. Human interferon alpha-2b (PBL Biolabs, New Brunswick, N.J.) was included in each run as a positive control compound. Cells were processed 72 hr post drug addition when the cells are still subconfluent. Antiviral activity was measured by analyzing replicon-derived luciferase activity using the Steady-Glo Luciferase Assay System (Promega, Madison, Wis.) according to manufacturer's instruction. The number of cells in each well was determined by CytoTox-1 reagent (Promega). Compound profile was derived by calculating applicable EC50 (effective concentration inhibiting virus replication by 50%), EC90 (effective concentration inhibiting virus replication by 90%), IC50 (concentration decreasing cell viability by 50%) and SI50 (selective index: […]) values.

Experiment [4] has as its target T3, A156T mutant of the HCV NS3/4A 1b protease enzyme (Hepatitis C virus genotype 1b, UniProt P26663, A1182T).
T3 construct: 10× stocks of NS3/4A protease enzyme from Bioenza (Mountain View, Calif.); purchased Bioenza (Mountain View, Calif.)
In words: HCV Protease FRET Assay (IC50_APP), A156T mutant. The class given is biochemical. To be noted: apparent IC50, A156T mutant; read-out: IC50_APP, HCV A156T. As for the experimental part:
as §1, §2, §3

Take `C=C[C@@H]1C[C@]1(NC(=O)[C@@H]1C[C@@H](Oc2cc(-c3ccccc3)nc3cc(OC)ccc23)CN1C(=O)C(CN(C)C(=O)C#CC)NC(=O)OC(C)(C)C)C(=O)NS(=O)(=O)c1ccccc1` (stereo in doubt) [Compound I-51, tert-butyl-(S)-1-((2S,4R)-4-(7-methoxy-2-phenylquinolin-4-yloxy)-2-((1R,2S)-1-(phenylsulfonylcarbamoyl)-2-vinylcyclopropylcarbamoyl)pyrrolidin-1-yl)-3-(N-methylbut-2-ynamido)-1-oxopropan-2-ylcarbamate]: the IC50 in experiment [1] lay in the range of 1000 to 10000 nM; in experiment [2], 10 to 100 nM.

With `C=C[C@@H]1C[C@]1(NC(=O)[C@@H]1C[C@@H](Oc2cc(-c3ccccc3)nc3cc(OC)ccc23)CN1C(=O)C(CN(C)C(=O)C(=C)C(F)(F)F)NC(=O)OC(C)(C)C)C(=O)NS(=O)(=O)c1ccccc1` (stereo in doubt) [Compound I-53, tert-butyl-(S)-1-((2S,4R)-4-(7-methoxy-2-phenylquinolin-4-yloxy)-2-((1R,2S)-1-(phenylsulfonylcarbamoyl)-2-vinylcyclopropylcarbamoyl)pyrrolidin-1-yl)-3-(N-methyl-2-(trifluoromethyl)acrylamido)-1-oxopropan-2-ylcarbamate], the IC50 in experiment [1] was 100 to 1000 nM; in experiment [2], below 10 nM; in experiment [3], 100 to 1000 nM; in experiment [4], 10 to 100 nM. In addition, in experiment [3], the IC90 (commonly the concentration needed for an effect of 90%) is above 10000 nM.

Turning to `C=CC(=O)N(C)C[C@H](NC(=O)OC(C)(C)C)C(=O)N1C[C@H](Oc2cc(-c3ccccc3)nc3cc(OC)ccc23)C[C@H]1C(=O)N[C@]1(C(=O)NS(=O)(=O)C2CC2)C[C@H]1C=C` [Compound I-52, tert-butyl-(S)-1-((2S,4R)-2-((1R,2S)-1-(cyclopropylsulfonylcarbamoyl)-2-vinylcyclopropylcarbamoyl)-4-(7-methoxy-2-phenylquinolin-4-yloxy)pyrrolidin-1-yl)-3-(N-methylacrylamido)-1-oxopropan-2-ylcarbamate], the IC50 is 1000 to 10000 nM in experiment [1], below 10 nM in experiment [2], below 10 nM in experiment [3] and 100 to 1000 nM in experiment [4]. In experiment [3], this molecule returned an IC90 below 10 nM.

`C=CC(=O)NC[C@H](NC(=O)OC1CCCC1)C(=O)N1C[C@H](Oc2cc(-c3ccccc3)nc3cc(OC)ccc23)C[C@H]1C(=O)N[C@]1(C(=O)NS(=O)(=O)C2CC2)C[C@H]1C=C` [Compound I-55, Cyclopentyl-(S)-3-acrylamido-1-((2S,4R)-2-((1R,2S)-1-(cyclopropylsulfonylcarbamoyl)-2-vinylcyclopropylcarbamoyl)-4-(7-methoxy-2-phenylquinolin-4-yloxy)pyrrolidin-1-yl)-1-oxopropan-2-ylcarbamate]: the IC50 in experiment [1] is 100 to 1000 nM; in experiment [2], below 10 nM; in experiment [3] it was below 10 nM; in experiment [4], 100 to 1000 nM. The molecule further registered an IC90 in experiment [3] of 100 to 1000 nM.

As to `C=CC(=O)N[C@@H](C(=O)N1C[C@H](Oc2cc(-c3ccccc3)nc3cc(OC)ccc23)C[C@H]1C(=O)N[C@]1(C(=O)NS(=O)(=O)C2CC2)C[C@H]1C=C)C(C)C` [Compound I-56, (2S,4R)-1-((R)-2-acrylamido-3-methylbutanoyl)-N-((1R,2S)-1-(cyclopropylsulfonylcarbamoyl)-2-vinylcyclopropyl)-4-(7-methoxy-2-phenylquinolin-4-yloxy)pyrrolidine-2-carboxamide], the IC50 in experiment [1] is 100 to 1000 nM; in experiment [2] it was below 10 nM; in experiment [3], below 10 nM; in experiment [4], 10 to 100 nM. In experiment [3], the IC90 fell in the range of 10 to 100 nM.

With `C=C[C@@H]1C[C@]1(NC(=O)[C@@H]1C[C@@H](Oc2cc(-c3ccccc3)nc3cc(OC)ccc23)CN1C(=O)CNC(=O)/C=C/C)C(=O)NS(=O)(=O)C1CC1` [Compound I-57, (2S,4R)-1-(2-(E)-but-2-enamidoacetyl)-N-((1R,2S)-1-(cyclopropylsulfonylcarbamoyl)-2-vinylcyclopropyl)-4-(7-methoxy-2-phenylquinolin-4-yloxy)pyrrolidine-2-carboxamide], the IC50 in experiment [1] lay in the range of 1000 to 10000 nM; in experiment [2], 100 to 1000 nM.

Turning to `C=CC(=O)N(C)C[C@H](NC(=O)c1cnccn1)C(=O)N1C[C@H](Oc2cc(-c3ccccc3)nc3cc(OC)ccc23)C[C@H]1C(=O)N[C@]1(C(=O)NS(=O)(=O)C2CC2)C[C@H]1C=C` [Compound I-58, (S)—N-3-(N-methyl)acrylamido-1-((2S,4R)-2-((1R,2S)-1-(cyclopropylsulfonylcarbamoyl)-2-vinylcyclopropylcarbamoyl)-4-(7-methoxy-2-phenylquinolin-4-yloxy)pyrrolidin-1-yl)-1-oxo-2-propylpyrazinecarboxamide], the IC50 in experiment [1] was 1000 to 10000 nM; in experiment [2] it was 10 to 100 nM; in experiment [3] it was 100 to 1000 nM; in experiment [4], 1000 to 10000 nM. The same molecule came in with an IC90 in experiment [3] of 1000 to 10000 nM.

For the molecule `C=C[C@@H]1C[C@]1(NC(=O)[C@@H]1C[C@@H](Oc2cc(-c3ccccc3)nc3cc(OC)ccc23)CN1C(=O)[C@H](Cc1ccc(F)c([N+](=O)[O-])c1)NC(=O)OC(C)(C)C)C(=O)NS(=O)(=O)c1ccccc1` [Compound I-59, tert-butyl-(S)-1-((2S,4R)-4-(7-methoxy-2-phenylquinolin-4-yloxy)-2-((1R,2S)-1-(phenylsulfonylcarbamoyl)-2-vinylcyclopropylcarbamoyl)pyrrolidin-1-yl)-3-(4-fluoro-3-nitrophenyl)-1-oxopropan-2-ylcarbamate], the IC50 in experiment [1] is 1000 to 10000 nM; in experiment [2] it was below 10 nM; in experiment [3], 100 to 1000 nM; in experiment [4] it was 1000 to 10000 nM. This molecule also displayed an IC90 in experiment [3] of 1000 to 10000 nM.

As for `C=C[C@@H]1C[C@]1(NC(=O)[C@@H]1C[C@@H](Oc2cc(-c3ccccc3)nc3cc(OC)ccc23)CN1C(=O)CNC(=O)c1ccc([N+](=O)[O-])cc1F)C(=O)NS(=O)(=O)c1ccccc1` [Compound I-63, (2S,4R)-1-(2-fluoro-4-nitrobenzamidoacetyl)-N-((1R,2S)-1-(phenylsulfonylcarbamoyl)-2-vinylcyclopropyl)-4-(7-methoxy-2-phenylquinolin-4-yloxy)pyrrolidine-2-carboxamide], the figures for the IC50 in experiment [1], in experiment [2] and in experiment [4] were 1000 to 10000 nM, 100 to 1000 nM and 1000 to 10000 nM, respectively.

On to `C=CC(=O)N[C@@H](C(=O)N1C[C@H](Oc2cc(-c3ccccc3)nc3cc(OC)ccc23)C[C@H]1C(=O)N[C@]1(C(=O)NS(=O)(=O)C2CC2)C[C@H]1C=C)C(C)(C)C` [Compound I-65, (2S,4R)-1-((R)-2-acrylamido-3,3-dimethylbutanoyl)-N-((1R,2S)-1-(cyclopropylsulfonylcarbamoyl)-2-vinylcyclopropyl)-4-(7-methoxy-2-phenylquinolin-4-yloxy)pyrrolidine-2-carboxamide], for which the IC50 was 1000 to 10000 nM in experiment [1], 100 to 1000 nM in experiment [2] and 1000 to 10000 nM in experiment [4].

As for `C=C[C@@H]1C[C@]1(NC(=O)[C@@H]1C[C@@H](Oc2cc(-c3ccccc3)nc3cc(OC)ccc23)CN1C(=O)[C@H](CCC(=O)N[C@H]1COC1=O)NC(=O)OC(C)(C)C)C(=O)NS(=O)(=O)C1CC1` [Compound I-69, t-butyl-(2S)-1-((2S,4R)-2-((1R,2S)-1-(cyclopropylsulfonylcarbamoyl)-2-vinylcyclopropylcarbamoyl)-4-(7-methoxy-2-phenylquinolin-4-yloxy)pyrrolidin-1-yl)-5-((3S)-2-oxooxetan-3-ylamino)-1,5-dioxopentan-2-ylcarbamate], the IC50 was 100 to 1000 nM in experiment [1], below 10 nM in experiment [2] and 100 to 1000 nM in experiment [4].
